Test results as given in US20250115595A1, “INHIBITORS OF HYPOXIA-INDUCIBLE FACTORS” (The Johns Hopkins University, priority 2021, published 2025).

Tests used:
Assay type in all cases: in vivo, mouse
Hepa1-6 HCC tumors = assay: Hepa1-6 tumor growth in syngeneic C57L mice; conditions: 32-134D 40 mg/kg/d intraperitoneal
Description: To test whether 32-134D inhibits HCC growth in an immunocompetent mouse model, Hepa1-6 HCC cells were injected into the flank of syngeneic C57L mice (Darlington G J et al., J Natl Cancer Inst. 1980; 64(4):809-819). When tumors became palpable (treatment day 1), mice received daily intraperitoneal injections of 32-134D (40 mg/kg/d) versus vehicle control, or anti-Pd1 antibody versus IgG2a isotype control ([…] on days 1, 4, 7, 10, and 16), or both 32-134D and anti-Pd1. Tumors grew very rapidly in all mice treated with vehicle or IgG2a, necessitating euthanasia on or before day 24 (FIG. 9). Tumors regressed in 5 out of 12 mice treated with anti-Pd1, but two tumors recurred after the last antibody treatment (on day 16) for a tumor eradication rate of only 25%. […] Thus, addition of 32-134D increased the percentage of mice with a durable complete response to anti-Pd1 immune checkpoint blockade from 25% to 67%.
Protocols were approved by the Johns Hopkins University Animal Care and Use Committee and used in accordance with the NIH Guide for the Care and Use of Laboratory Animals (National Research Council, 2011). Female nude mice (NCI Athymic NCr-nu/nu) and male C57L/J mice were purchased from Charles River and The Jackson Laboratory, respectively. Hep3B (8×106) and Hepa1-6 (1×107) cells were implanted subcutaneously in 6- to 8-week-old mice, and tumor volume was calculated: V=abc×0.52. […]

[1] = system: intratumoral gene expression; assay: RT-qPCR and ELISA of Hepa1-6 tumor tissue
Description: RNA was extracted using TRIzol Reagent (ThermoFisher). Quantitative Real-time PCR was conducted using SYBR Green PCR Master Mix (BioRad) and reactions were run using the BioRad thermal cycler (BioRad). The mRNA expression of target genes was normalized to the expression of 18S rRNA and the fold change (FC) was calculated based on the threshold cycle (Ct) as
Human (EPO, SCF, SDF1a, VEGFA) and mouse (Cxcl1, Cxcl2, Cxcl9, Cxcl10, Il6, Il10, IL22, Vegfa) protein concentrations in tumor homogenates were determined using ELISA kits (Table 4) from Novus Biologicals. Optical density was obtained at 450 nm (corrected for readings at 570 nm) using the VICTOR Nivo plate reader (PerkinElmer). Sample protein concentration was calculated by linear regression from a standard curve.

C57BL/6 mice = assay: Laser CNV model, intraperitoneal dosing
Description: The laser CNV model for neovascular (wet) age-related macular degeneration was used to assess the efficacy of 32-134D in blocking HIF-regulated gene expression in the eye (FIG. 20A). C57BL/6 mice were treated with laser on day 0. Beginning on day 2, mice were treated with 5 daily intraperitoneal (IP) injections (day 2 to day 6) with 32-134D at 40 mg/kg or with vehicle control. On day 7, choroidal flat mounts were prepared and stained with isolectin-B4 to examine the CNV lesions. The expression of Vegf (FIG. 20B) and Angpt14 (FIG. 20C) mRNA was also measured at day 7 following laser treatment.
C57BL/6 mice were treated with laser on day 0. Beginning on day 2, mice were treated with 5 daily IP injections (day 2 to day 6) with 32-134D at 40 mg/kg or with vehicle control. On day 7, mice were euthanized and choroidal flat mounts were stained with isolectin-B4 to examine the area of CNV lesions.

Brc1ccc2c(-c3csc(-c4c[nH]c5c(Br)cccc45)n3)c[nH]c2c1 [Compound 32-134D, 4-(6-bromo-1H-indol-3-yl)-2-(7-bromo-1H-indol-3-yl)thiazole]
mice with tumor eradication (Hepa1-6 HCC tumors): 4 of 12 | tumor growth (Hepa1-6 HCC tumors): marked inhibition of tumor growth in all mice | tumor mRNAs encoding angiogenic factors and proteins mediating immunosuppression ([1]; Angpt14, Epo, Pgf, Vegfa, B7h4, Cd47, Cd70, Cd73, Glut1, Ldha, Pdl1, Tim3, RT-qPCR): significantly decreased | Cxcl1, Il10 and Vegfa protein levels in tumors ([1]; ELISA on tumor lysates): significantly decreased levels | Cxcl9 and Cxcl10 protein levels in tumors ([1]; ELISA on tumor lysates): significantly increased levels | tumor expression of Cxcl9 and Cxcl10 mRNA ([1]; RT-qPCR): increased | Cxcl1, Il6 and Il10 mRNA levels in tumor tissue ([1]; mouse, in vivo): decreased | IL22 mRNA and protein expression in Hepa1-6 tumors ([1]; mouse, in vivo): inhibited | Vegf mRNA in eyes (C57BL/6 mice; 40 mg/kg IP, day 7 after laser): significantly decreased | CNV lesions (C57BL/6 mice; 5 daily IP injections 40 mg/kg, day 7): marked decrease in CNV | Angpt14 mRNA expression in eyes (C57BL/6 mice; 20 or 40 mg/kg IP, day 7 after laser): significantly decreased
